# How the values were obtained:
# Format in all cases: toxicity, cell-based
# HEK-293T = assay: Incucyte cell viability with HEK293T; settings: human, 10 µM, compound concentration 10 uM
# Fibroblast = assay: Incucyte cell viability with human fibroblast; settings: 10 µM, compound concentration 10 uM
# U2OS = assay: Incucyte cell viability with U2OS; settings: human, 10 µM, compound concentration 10 uM
# [1] = 6 h, replicate number 1, timepoint 6 hours
# [2] = 6 h, replicate number 2, timepoint 6 hours
# [3] = 12 h, replicate number 1, timepoint 12 hours
# [4] = 12 h, replicate number 2, timepoint 12 hours
# [5] = 18 h, replicate number 1, timepoint 18 hours
# [6] = 18 h, replicate number 2, timepoint 18 hours
# [7] = 24 h, replicate number 1, timepoint 24 hours
# [8] = 24 h, replicate number 2, timepoint 24 hours
# [9] = 0 h, replicate number 2, timepoint 0 hours
# [10] = 0 h, replicate number 1, timepoint 0 hours
# Further: unitless GR value; below 1 slowed growth and below 0 cell loss.
Structure (SMILES),Growth Rate (HEK-293T; [1]),Growth Rate (HEK-293T; [3]),Growth Rate (HEK-293T; [6]),Growth Rate (HEK-293T; [7]),Growth Rate (Fibroblast; [1]),Growth Rate (Fibroblast; [2]),Growth Rate (Fibroblast; [3]),Growth Rate (Fibroblast; [4]),Growth Rate (Fibroblast; [5]),Growth Rate (U2OS; [1]),Growth Rate (U2OS; [3]),Growth Rate (U2OS; [4]),Growth Rate (U2OS; [5]),Growth Rate (U2OS; [6]),Growth Rate (U2OS; [7]),Growth Rate (U2OS; [8]),Growth Rate (HEK-293T; [9]),Growth Rate (Fibroblast; [10]),Growth Rate (Fibroblast; [9]),Growth Rate (U2OS; [10]),other results
CC(C)COc1ccc(CNC(=O)N(Cc2ccc(F)cc2)C2CCN(C)CC2)cc1 [PIMAVANSERIN],-0.67,-0.29,0.1,-0.29,0.97,-0.26,0.37,-0.05,0.14,0.56,0.62,0.31,0.57,0.26,0.5,0.24,–,–,–,–,Growth Rate (HEK-293T; [2]): 0.4; Growth Rate (HEK-293T; [4]): 0.31; Growth Rate (HEK-293T; [5]): -0.21; Growth Rate (HEK-293T; [8]): -0.01; Growth Rate (Fibroblast; [7]): 0.27; Growth Rate (Fibroblast; [8]): 0.26; Growth Rate (U2OS; [2]): 0.04
CC(C)NCC(O)COc1cccc2[nH]ccc12 (stereo not given) [PINDOLOL],0.7,–,0.94,0.82,–,–,0.78,–,0.94,0.52,0.93,–,0.88,–,0.7,–,-0.05,0.32,-0.46,-0.36,Growth Rate (HEK-293T; [5]): 0.97; Growth Rate (HEK-293T; [8]): 0.98; Growth Rate (Fibroblast; [7]): 0.9; Growth Rate (U2OS; [9]): 0.98
Cc1noc(C)c1-c1cnc2c(-c3ccc(C(=O)O)cc3)cn([C@@H](C)c3ccccn3)c2c1 [PLX-51107],–,–,–,0.6,0.13,0.81,–,0.99,–,0.72,0.5,–,0.73,0.96,0.96,–,–,–,0.17,-0.01,Growth Rate (HEK-293T; [5]): 0.88; Growth Rate (U2OS; [9]): -0.06; Growth Rate (U2OS; [2]): 0.86
COc1cc2nc(N3CCN(C(=O)c4ccco4)CC3)nc(N)c2cc1OC.Cl [PRAZOSIN HYDROCHLORIDE],0.79,0.66,–,0.92,-0.46,–,0.21,0.92,0.49,0.78,0.57,0.91,0.56,–,0.77,0.92,–,–,–,-0.45,Growth Rate (HEK-293T; [5]): 0.88; Growth Rate (Fibroblast; [7]): 0.44
COCCCN1CCC(NC(=O)c2cc(Cl)c(N)c3c2OCC3)CC1 [PRUCALOPRIDE],–,–,–,–,0.71,0.75,0.6,–,0.86,–,–,0.99,0,0.98,0.1,–,–,0.48,0.89,0.24,Growth Rate (HEK-293T; [4]): 0.99; Growth Rate (U2OS; [2]): 0.76
CC(C)(C)c1ccc(CSc2cnn(C(C)(C)C)c(=O)c2Cl)cc1 [PYRIDABEN],-0.14,0.01,0.2,0.1,-0.33,0.56,-0.26,0.81,-0.13,–,–,–,0.62,0.92,0.86,0.96,0.94,–,-0.26,–,Growth Rate (HEK-293T; [10]): 0.63; Growth Rate (HEK-293T; [2]): -0.1; Growth Rate (HEK-293T; [4]): -0.01; Growth Rate (HEK-293T; [5]): 0.13; Growth Rate (HEK-293T; [8]): 0.22; Growth Rate (Fibroblast; [6]): 0.71; Growth Rate (Fibroblast; [7]): -0.12; Growth Rate (Fibroblast; [8]): 0.08; Growth Rate (U2OS; [9]): -1
COc1ccc(CN(CCN(C)C)c2ccccn2)cc1 [PYRILAMINE],–,0.94,–,–,0.36,0.26,–,–,–,–,–,–,–,0.91,1,0.96,–,–,0.99,0.52,Growth Rate (HEK-293T; [2]): 0.74; Growth Rate (HEK-293T; [4]): 0.74
CCCN1CCC[C@@H]2Cc3n[nH]cc3C[C@H]21.Cl [QUINPIROLE HYDROCHLORIDE],0.41,–,–,–,0.59,–,0.29,–,0.54,-0.04,–,0.66,0.9,0.96,0.88,0.96,0.26,-0.18,0.29,–,Growth Rate (U2OS; [2]): 0.9
CC(C)(C)c1cc(NC(=O)Nc2ccc(-c3cn4c(n3)sc3cc(OCCN5CCOCC5)ccc34)cc2)no1 [QUIZARTINIB],-0.18,–,0.17,–,–,–,–,1,–,0.41,–,0.51,–,0.52,–,0.65,–,-0.84,0.43,–,Growth Rate (HEK-293T; [10]): 0.2; Growth Rate (HEK-293T; [4]): -0.06; Growth Rate (HEK-293T; [8]): 0.22; Growth Rate (Fibroblast; [6]): 0.89; Growth Rate (Fibroblast; [8]): 0.78
O=C(O)CCn1c2c(c3ccccc31)C[C@H](NS(=O)(=O)c1ccc(F)cc1)CC2 [RAMATROBAN],–,0.91,0.76,–,–,0.99,–,–,–,–,0.75,0.9,0.98,0.9,0.97,–,–,-0.24,0.9,–,Growth Rate (HEK-293T; [2]): 0.71; Growth Rate (HEK-293T; [4]): 0.72; Growth Rate (U2OS; [9]): -1
CCC(=O)NCC[C@@H]1CCc2ccc3c(c21)CCO3 [RAMELTEON],0.99,–,–,0.86,0.76,0.51,0.96,0.73,0.96,0.45,0.54,–,0.88,–,0.82,–,-0.36,0.51,0.17,-0.01,Growth Rate (HEK-293T; [10]): 0.12; Growth Rate (Fibroblast; [6]): 0.83; Growth Rate (Fibroblast; [7]): 0.77; Growth Rate (Fibroblast; [8]): 0.89
COC(=O)[C@H]1[C@H]2C[C@H]3c4[nH]c5ccccc5c4CCN3C[C@H]2CC[C@@H]1O.Cl [RAUWOLSCINE HYDROCHLORIDE],0.76,0.95,–,–,0.83,–,0.59,–,–,0.53,0.61,0.89,0.79,0.88,–,0.98,0.67,–,-0.08,-0.57,Growth Rate (HEK-293T; [10]): 0.51
CC(C)Cc1ccc([C@@H](C)C(=O)NS(C)(=O)=O)cc1 [REPARIXIN],–,0.78,0.83,0.82,0.51,-0.08,0.63,0.66,0.6,–,–,0.88,–,0.86,–,0.93,0.48,–,–,-0.7,Growth Rate (HEK-293T; [5]): 0.7; Growth Rate (Fibroblast; [6]): 0.65; Growth Rate (Fibroblast; [7]): 0.06; Growth Rate (Fibroblast; [8]): 0.95; Growth Rate (U2OS; [9]): -1; Growth Rate (U2OS; [2]): 0.83
CC(C)c1cc(Oc2c(Cl)cc(-n3nc(C#N)c(=O)[nH]c3=O)cc2Cl)n[nH]c1=O [RESMETIROM],0.99,0.77,0.96,–,–,0.58,–,0.74,–,0.7,–,0.75,0.83,0.79,0.99,–,0.23,-0.06,0.82,0.87,Growth Rate (HEK-293T; [10]): 0.01; Growth Rate (HEK-293T; [8]): 0.86; Growth Rate (Fibroblast; [6]): 0.87; Growth Rate (Fibroblast; [8]): 0.85; Growth Rate (U2OS; [9]): 0.06; Growth Rate (U2OS; [2]): 0.54
